Values of other authors as cited in patent US20100310597A1, “ANTI-OFLOXACIN MONOCLONAL ANTIBODY AND IMMUNOASSAY OF OFLOXACIN USING THE SAME” (SEKISUI MEDICAL CO., LTD, priority 2007, published 2010).

Conditions: background statement

In the case of `C[C@H]1COc2c(N3CCN(C)CC3)c(F)cc3c(=O)c(C(=O)O)cn1c23` [levofloxacin, (−)-(S)-9-fluoro-2,3-dihydro-3-methyl-10-(4-methyl-1-piperazinyl)-7-oxo-7H-pyrido[1,2,3-de][1,4]benzoxazine-6-carboxylic acid], the “Antibiotic activity relative to ofloxacin” value is given as “approximately twice”.
